Experimental data published in patent publication US7723376B2, “2-oxo-heterocyclic compounds and pharmaceutical compositions” (Korea Research Institute of Bioscience and Biotechnology, priority 2003, dated 2010).

These compounds were tested on histone deacetylase (HDAC) (assay: HDAC Fluorescent Activity Assay/Drug Discovery Kit (Biomol) with nuclear extracts of HeLa cell as HDAC source). Details: compounds 0.01 to 10 μM, 25° C., 20 minutes, fluorescence.
Assay type: biochemical
Description: Fluorogenic Histone Deacetylase Lysyl Substrate was used as substrate for HDAC and the test is based on the fact that the removal of acetyl group by HDAC activity causes the substrate to occur emmition wavelength in the ranging from 360 nm to 460 nm.
Various concentrations of the compounds of the present invention ranging from 0.01 to 10 μM were reacted with HDAC enzyme at 25° C. for 20 minutes and equal volume of developer was added thereto. The fluorescence signal was detected at the wavelength in the range 350 to 460 nm using by fluorescence spectrometer.

For `O=C(CCC1=CCN(CCCc2ccccc2)C1=O)NO` [Example 4, N-hydroxy-3-[2-oxo-1-(3-phenyl-propyl)-2,5-dihydro-1H-pyrrol-3-yl]-propionamide], the HDAC inhibition was “AAA”.

Each compound was assayed on PC-3 cells (assay: Tumor cell growth inhibition, sulforhodamine B (SRB) staining). Details: PC-3 human prostatic carcinoma cells, 48 hrs, absorbance 540 nm, adriamycin as positive control.
Assay type: cell-based
Description: PC-3 cells (ATCC, US), human prostatic carcinoma cell line, were cultured in RMPI 1640 supplemented with 10% fetal bovine serum.
Appropriate concentrations of cells (5×10^4 cells/ml) cultured in RMPI 1640 supplemented with 5% fetal bovine serum were poured into 96-well plate and incubated at 37° C. in 5% CO2 condition. The day after the incubation, PC-3 cells were fixed on Time zero (T0) plate by adding 50 μl/well of 50% trichloroacetic acid and the cell concentration was set to zero point by fixing the cells. In the cells treated with test samples, 50% TCA was added to each wells in 50 ul/well after 48 hrs to fix the cells. The final concentration of adding test compounds were 0.01, 0.03, 0.1, 0.3, 1 μg/ml respectively. Then, each fixed plate was washed, dried and 100 μl/well of 0.4% reaction solution containing sulforhodamine B (SRB) reagent dissolved in 0.1% acetic acid was added thereto to stain the cells. 30 minutes later, the cell was washed with 0.1% acetic acid, dried at room temperature, and 10 mM of TRIS base (pH 10.5) was added thereto to dissolve the staining agent. Finally, the absorbance detected at 540 nm was measured and the value was conversed into percentage comparing with that of control group. IC50 (μg/ml), the concentration of the group required to inhibit the cancer cell growth by 50%, was calculated from the data (AA: IC50's<1, A: IC50's<5, B: IC50's<10 and C: IC50's>10). Also, the inhibiting activity of cell growth was expressed as various symbols in accordance with the potency of examples e.g., AA: closely equivalent (1˜2 times), A: slightly weaker (3˜5 times), B: weaker (5˜10 times), C: very weaker (more than 10 times) than that of adriamycin used as a positive control group.

`O=C(CCC1=CCN(CCCc2ccccc2)C1=O)NO` [Example 4, N-hydroxy-3-[2-oxo-1-(3-phenyl-propyl)-2,5-dihydro-1H-pyrrol-3-yl]-propionamide] and `O=C(CCC1=CCN(CCc2ccccc2)C1=O)NO` [Example 3, N-hydroxy-3-(2-oxo-1-phenethyl-2,5-dihydro-1H-pyrrol-3-yl)-propionamide] cannot be ordered by IC50: less than 5 µg/mL for the first, less than 1 µg/mL for the second.

`Cc1ccc(S(=O)(=O)Nc2ccc(CN3CC=C(CCC(=O)NO)C3=O)cc2)cc1` [Example 19, N-hydroxy-3-{2-oxo-1-[4-(toluene-4-sulfonylamino)-benzyl]-2,5-dihydro-1H-pyrrol-3-yl}-propionamide] and `Cc1ccc(S(=O)(=O)Nc2ccc(CN3CCC=C(CCC(=O)NO)C3=O)cc2)cc1` [Example 77, N-hydroxy-3-2-oxo-1-[4-(toluene-4-sulfonylamino)-benzyl-1,2,5,6-tetrahydro-pyridin-3-yl]-propionamide] cannot be ordered by IC50: less than 10 µg/mL for the first, less than 5 µg/mL for the second.

`O=C(CCC1=CCN(Cc2ccc(NC(=O)c3ccccc3)cc2)C1=O)NO` [Example 18, N-{4-[3-(2-hydroxycarbamoyl-ethyl)-2-oxo-2,5-dihydro-pyrrole-1-yl-methyl]-phenyl}-benzamide] and `O=C(CCC1=CCCN(Cc2ccc(NC(=O)c3ccccc3)cc2)C1=O)NO` [Example 75, N-4-[5-(2-hydroxycarbamoyl-ethyl)-6-oxo-3,6-dihydro-2-pyridin-1-yl-methyl]-phenyl-benzamide] cannot be ordered by IC50: less than 10 µg/mL for the first, less than 10 µg/mL for the second.

`O=C(CCC1=CCN(CCCc2ccc(Br)cc2)C1=O)NO` [Example 44, 3-{1-[3-(4-bromo-phenyl)-propyl]-2-oxo-2,5-dihydro-1H-pyrrol-3-yl]-N-hydroxy-propionamide] and `O=C(CCC1=CCN(Cc2ccc(Br)cc2)C1=O)NO` [Example 12, 3-[1-(4-bromo-benzyl)-2-oxo-2,5-dihydro-1H-pyrrol-3-yl]-N-hydroxy-propionamide] cannot be ordered by IC50: less than 10 µg/mL for the first, less than 1 µg/mL for the second.

Going from `COc1ccc(CN2CC=C(CCC(=O)NO)C2=O)c(OC)c1` [Example 1, 3-[1-(2,4-Dimethoxybenzyl)-2-oxo-2,5-dihydro-1H-pyrrol-3-yl]-N-hydroxypropionamide] to `COc1ccc(CN2CC=C(CC(=O)NO)C2=O)c(OC)c1` [Example 21, 2-[1-(2,4-dimethoxy-benzyl)-2-oxo-2,5-dihydro-1H-pyrrol-3-yl]-N-hydroxy-acetamide], the IC50 rises from less than 5 µg/mL to greater than 10 µg/mL.

`Cc1ccc(CCN2CC=C(CCC(=O)NO)C2=O)cc1` [Example 39, N-hydroxy-3-[2-oxo-1-(2-p-tolyl-ethyl)-2,5-dihydro-1H-pyrrol-3-yl]-propionamide] and `Cc1ccc(CN2CC=C(CCC(=O)NO)C2=O)cc1` [Example 8, N-hydroxy-3-[1-(4-methyl-benzyl)-2-oxo-2,5-dihydro-1H-pyrrol-3-yl]-propionamide] cannot be ordered by IC50: less than 5 µg/mL for the first, less than 5 µg/mL for the second.

`C=CCN1CCC=C(CCC(=O)NO)C1=O` [Example 101, 3-(1-Allyl-2-oxo-1,2,5,6-tetrahydro-pyridin-3-yl)-N-hydroxy-propionamide] and `C=CCN1CC=C(CCC(=O)NO)C1=O` [Example 51, 3-(1-allyl-2-oxo-2,5-dihydro-1H-pyrrol-3-yl)-N-hydroxy-propionamide] cannot be ordered by IC50: greater than 10 µg/mL for the first, greater than 10 µg/mL for the second.

`COc1ccc(CN2CCC(CC(=O)NO)C2=O)c(OC)c1` (stereo not drawn) [Example 26, 2-[1-(2,4-dimethoxy-benzyl)-2-oxo-pyrrolidin-3-yl]-N-hydroxy-acetamide] and `O=C(CC1CCN(CCc2ccccc2)C1=O)NO` (stereo not drawn) [Example 27, N-hydroxy-2-(2-oxo-1-phenethyl-pyrrolidin-3-yl)-acetamide] cannot be ordered by IC50: greater than 10 µg/mL for the first, greater than 10 µg/mL for the second.

`O=C(CCC1=CCN(CCc2ccc([N+](=O)[O-])cc2)C1=O)NO` [Example 33, N-hydroxy-3-{1-[2-(4-nitro-phenyl)-ethyl]-2-oxo-2,5-dihydro-1H-pyrrol-3-yl}-propionamide] and `O=C(CCC1=CCCN(Cc2ccc([N+](=O)[O-])cc2)C1=O)NO` [Example 59, N-hydroxy-3-[1-(4-nitro-benzyl)-2-oxo-1,2,5,6-tetrahydro-pyridin-3-yl)-propionamide] cannot be ordered by IC50: less than 5 µg/mL for the first, less than 10 µg/mL for the second.

`O=C(CCC1=CCCCN(CCCc2ccccc2)C1=O)NO` [Example 106, N-Hydroxy-3-[2-oxo-1-(3-phenyl-ethyl)-2,5,6,7-tetrahydro-1H-azepin-3-yl]-propionamide] and `O=C(CCC1=CCCCN(Cc2ccccc2)C1=O)NO` [Example 105, 3-(1-Benzyl-2-oxo-2,5,6,7-tetrahydro-1H-azepin-3-yl)-N-hydroxy-propionamide] cannot be ordered by IC50: greater than 10 µg/mL for the first, greater than 10 µg/mL for the second.

`O=C(CCC1=CCN(CCc2ccccc2Br)C1=O)NO` [Example 34, 3-{1-[2-(2-bromo-phenyl)-ethyl]-2-oxo-2,5-dihydro-1H-pyrrol-3-yl}-N-hydroxy-propionamide] and `O=C(CCC1=CCN(CCc2cccs2)C1=O)NO` [Example 54, N-hydroxy-3-[2-oxo-1-(2-thiophen-2-yl-ethyl)-2,5-dihydro-1H-pyrrol-3-yl]-propionamide] cannot be ordered by IC50: less than 5 µg/mL for the first, less than 5 µg/mL for the second.

`CC(C)c1ccc(CCCN2CC=C(CCC(=O)NO)C2=O)cc1` [Example 43, N-hydroxy-3-{1-[3-(4-isopropyl-phenyl)-propyl]-2-oxo-2,5-dihydro-1H-pyrrol-3-yl]-propionamide] and `O=C(CCC1=CCN(Cc2ccc(Cl)cc2)C1=O)NO` [Example 13, 3-[1-(4-chloro-benzyl)-2-oxo-2,5-dihydro-1H-pyrrol-3-yl]-N-hydroxy-propionamide] cannot be ordered by IC50: less than 5 µg/mL for the first, less than 5 µg/mL for the second.

Compared with `O=C(CCC1=CCCN(CCc2ccccc2)C1=O)NOCc1ccccc1` [Example 73, N-benzyloxy-3-(2-oxo-1-phenethyl-1,2,5,6-tetrahydro-pyridin-3-yl)-propionamide], `O=C(CCC1=CCN(Cc2ccc(OCc3ccccc3)cc2)C1=O)NO` [Example 14, 3-[1-(4-benzyloxy-benzyl)-2-oxo-2,5-dihydro-1H-pyrrol-3-yl]-N-hydroxy-propionamide] is lower in IC50: greater than 10 µg/mL for the first, less than 10 µg/mL for the second.

`O=C(CC1=CCN(CCCCc2ccccc2)C1=O)NO` [Example 23, N-hydroxy-2-[2-oxo-1-(4-phenyl-butyl)-2,5-dihydro-1H-pyrrol-3-yl]-acetamide] and `O=C(CC1=CCN(CCc2ccccc2)C1=O)NO` [Example 22, N-hydroxy-2-(2-oxo-1-phenethyl-2,5-dihydro-1H-pyrrol-3-yl)-acetamide] cannot be ordered by IC50: greater than 10 µg/mL for the first, greater than 10 µg/mL for the second.

`O=C(O)CCC1=CCCN(Cc2ccc([N+](=O)[O-])cc2)C1=O` [Example 65, 3-[1-(4-nitro-benzyl)-2-oxo-1,2,5,6-tetrahydro-pyridin-3-yl)-propionic acid] and `COc1ccc(CN2CCC=C(CCCC(=O)NO)C2=O)cc1` [Example 95, 4-[1-(4-methoxy-benzyl)-2-oxo-1,2,5,6-tetrahydro-pyridin-3-yl]-N-hydroxy-butylamide] cannot be ordered by IC50: greater than 10 µg/mL for the first, greater than 10 µg/mL for the second.

`COc1cccc(CCN2CC=C(CCC(=O)NO)C2=O)c1` [Example 37, N-hydroxy-3-{1-[2-(3-methoxy-phenyl)-ethyl]-2-oxo-2,5-dihydro-1H-pyrrol-3-yl}-propionamide] and `O=C(CCC1=CCCN(CCc2cccs2)C1=O)NO` [Example 104, N-hydroxy-3-[2-oxo-1-(2-thiophen-2-yl-ethyl)-1,2,5,6-tetrahydro-pyridin-3-yl]-propionamide] cannot be ordered by IC50: less than 5 µg/mL for the first, less than 10 µg/mL for the second.

First: CN1CCC=C(CCC(=O)NO)C1=O [Example 102, N-hydroxy-3-(1-methyl-2-oxo-1,2,5,6-tetrahydro-pyridin-3-yl)-propionamide]
Second: CN1CC=C(CCC(=O)NO)C1=O [Example 50, N-hydroxy-3-(1-methyl-2-oxo-2,5-dihydro-1H-pyrrol-3-yl)-propionamide]
The IC50 of the first is higher: greater than 10 µg/mL for the first, less than 1 µg/mL for the second.

For `O=C(O)CCC1=CCN(Cc2ccccc2)C1=O` [Example 17, 3-(1-benzyl-2-oxo-2,5-dihydro-1H-pyrrol-3-yl)-propionic acid], the IC50 was greater than 10 µg/mL.
